Where two headings read alike, the source gives them in different places.
What was measured:
EGFR (ErbB1) T790M = EGFR (ErbB1) T790M (Homo sapiens, UniProt P00533, T790M); assay: SelectScreen kinase profiling; type: biochemical; conditions: average of duplicate
FYN = FYN (Homo sapiens, UniProt P06241); assay: SelectScreen kinase profiling; type: biochemical; conditions: average of duplicate
SRMS (Srm) = SRMS (Srm) (Homo sapiens, UniProt Q9H3Y6); assay: SelectScreen kinase profiling; type: biochemical; conditions: average of duplicate
SRMS (Srm), sequence (Q9H3Y6 whole entry): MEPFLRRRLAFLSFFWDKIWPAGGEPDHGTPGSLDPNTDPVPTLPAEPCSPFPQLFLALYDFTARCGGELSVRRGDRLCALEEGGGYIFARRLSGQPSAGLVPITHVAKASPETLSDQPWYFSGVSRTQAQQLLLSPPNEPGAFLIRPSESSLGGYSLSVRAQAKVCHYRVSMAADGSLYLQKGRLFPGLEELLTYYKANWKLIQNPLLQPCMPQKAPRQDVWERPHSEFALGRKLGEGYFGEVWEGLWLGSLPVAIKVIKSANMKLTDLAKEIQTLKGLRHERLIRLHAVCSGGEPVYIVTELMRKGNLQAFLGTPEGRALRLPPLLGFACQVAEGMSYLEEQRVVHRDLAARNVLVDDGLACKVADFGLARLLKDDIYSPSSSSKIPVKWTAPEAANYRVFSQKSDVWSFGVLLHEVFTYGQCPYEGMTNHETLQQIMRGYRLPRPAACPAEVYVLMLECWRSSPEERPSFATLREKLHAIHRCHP

TNK1 = TNK1 (Homo sapiens, UniProt Q13470); assay: SelectScreen kinase profiling; type: biochemical; conditions: average of duplicate
TNK1, sequence (Q13470 whole entry): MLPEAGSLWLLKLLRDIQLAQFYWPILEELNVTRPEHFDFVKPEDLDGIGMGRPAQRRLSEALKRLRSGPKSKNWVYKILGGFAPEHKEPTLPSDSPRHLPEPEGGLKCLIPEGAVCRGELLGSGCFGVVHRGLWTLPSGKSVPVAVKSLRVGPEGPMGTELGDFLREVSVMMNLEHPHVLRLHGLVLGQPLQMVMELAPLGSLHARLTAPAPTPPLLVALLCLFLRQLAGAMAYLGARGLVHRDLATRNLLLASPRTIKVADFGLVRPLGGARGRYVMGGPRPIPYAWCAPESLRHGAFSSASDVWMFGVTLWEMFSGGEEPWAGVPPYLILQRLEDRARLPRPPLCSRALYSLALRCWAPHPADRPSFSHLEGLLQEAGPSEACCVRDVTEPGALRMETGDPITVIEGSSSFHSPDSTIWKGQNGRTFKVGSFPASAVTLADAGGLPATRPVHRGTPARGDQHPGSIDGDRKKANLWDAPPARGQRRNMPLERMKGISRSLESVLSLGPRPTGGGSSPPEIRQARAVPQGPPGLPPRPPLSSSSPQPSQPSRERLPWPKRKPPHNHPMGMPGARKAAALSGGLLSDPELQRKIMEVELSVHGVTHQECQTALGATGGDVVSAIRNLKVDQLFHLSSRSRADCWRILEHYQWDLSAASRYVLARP

EGFR (ErbB1) d746-750 = EGFR (ErbB1) d746-750 (Homo sapiens, UniProt P00533, DEL746-750); assay: SelectScreen kinase profiling; type: biochemical; conditions: average of duplicate
EGFR (ErbB1) d746-750, sequence (P00533 with tags, fused parts or gaps DEL746-750 limits assumed): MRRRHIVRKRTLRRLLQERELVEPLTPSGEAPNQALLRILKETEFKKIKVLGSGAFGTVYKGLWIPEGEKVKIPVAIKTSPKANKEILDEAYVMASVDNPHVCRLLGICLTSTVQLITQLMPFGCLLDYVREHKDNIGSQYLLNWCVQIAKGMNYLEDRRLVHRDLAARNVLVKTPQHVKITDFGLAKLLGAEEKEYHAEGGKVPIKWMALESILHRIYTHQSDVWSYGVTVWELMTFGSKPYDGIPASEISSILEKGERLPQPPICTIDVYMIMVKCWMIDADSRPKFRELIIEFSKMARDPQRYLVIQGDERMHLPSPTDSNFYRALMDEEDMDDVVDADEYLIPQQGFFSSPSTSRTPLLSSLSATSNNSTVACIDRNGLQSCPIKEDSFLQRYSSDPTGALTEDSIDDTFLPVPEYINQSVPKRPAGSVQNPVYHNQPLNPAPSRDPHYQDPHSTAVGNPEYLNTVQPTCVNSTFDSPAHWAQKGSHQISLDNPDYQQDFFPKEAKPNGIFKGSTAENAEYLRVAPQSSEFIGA

BLK = BLK (Homo sapiens, UniProt P51451); assay: SelectScreen kinase profiling / Z′-Lyte kinase assay
BLK, sequence (P51451 whole entry): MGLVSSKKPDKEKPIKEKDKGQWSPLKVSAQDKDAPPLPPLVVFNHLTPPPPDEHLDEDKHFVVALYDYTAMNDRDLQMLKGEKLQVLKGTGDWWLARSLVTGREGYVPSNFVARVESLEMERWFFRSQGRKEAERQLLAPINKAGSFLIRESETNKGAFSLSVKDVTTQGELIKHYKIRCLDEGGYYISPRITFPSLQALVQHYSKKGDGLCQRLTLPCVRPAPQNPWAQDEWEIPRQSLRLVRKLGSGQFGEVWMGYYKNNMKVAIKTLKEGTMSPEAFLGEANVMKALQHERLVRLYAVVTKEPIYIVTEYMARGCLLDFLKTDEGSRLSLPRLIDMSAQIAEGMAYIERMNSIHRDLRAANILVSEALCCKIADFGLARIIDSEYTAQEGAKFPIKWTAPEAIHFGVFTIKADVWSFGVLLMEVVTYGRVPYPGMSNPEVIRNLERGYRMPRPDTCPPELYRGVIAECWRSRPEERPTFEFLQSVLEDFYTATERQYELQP

BTK = BTK (Homo sapiens, UniProt Q06187); assay: as above
BTK, sequence (Q06187 whole entry): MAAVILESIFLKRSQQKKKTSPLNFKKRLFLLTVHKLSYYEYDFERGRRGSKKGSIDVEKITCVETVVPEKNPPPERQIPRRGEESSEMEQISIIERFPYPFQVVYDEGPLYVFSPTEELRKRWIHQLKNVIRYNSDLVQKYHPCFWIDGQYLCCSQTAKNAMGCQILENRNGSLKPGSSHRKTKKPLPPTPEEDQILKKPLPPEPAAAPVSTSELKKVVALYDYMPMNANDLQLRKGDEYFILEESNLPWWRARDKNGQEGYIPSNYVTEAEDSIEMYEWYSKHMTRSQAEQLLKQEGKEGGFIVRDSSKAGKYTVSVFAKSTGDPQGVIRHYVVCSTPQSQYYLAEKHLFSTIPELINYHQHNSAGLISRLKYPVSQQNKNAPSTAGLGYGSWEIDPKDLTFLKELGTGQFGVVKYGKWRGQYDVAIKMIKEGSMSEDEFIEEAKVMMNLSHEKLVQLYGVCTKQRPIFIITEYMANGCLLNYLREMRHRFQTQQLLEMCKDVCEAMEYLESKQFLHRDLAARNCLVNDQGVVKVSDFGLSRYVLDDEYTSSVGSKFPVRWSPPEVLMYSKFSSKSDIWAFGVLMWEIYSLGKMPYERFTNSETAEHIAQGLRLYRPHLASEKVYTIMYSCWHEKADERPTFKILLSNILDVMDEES

EGFR (ErbB1) T790M, sequence (P00533 25-1210 T790M): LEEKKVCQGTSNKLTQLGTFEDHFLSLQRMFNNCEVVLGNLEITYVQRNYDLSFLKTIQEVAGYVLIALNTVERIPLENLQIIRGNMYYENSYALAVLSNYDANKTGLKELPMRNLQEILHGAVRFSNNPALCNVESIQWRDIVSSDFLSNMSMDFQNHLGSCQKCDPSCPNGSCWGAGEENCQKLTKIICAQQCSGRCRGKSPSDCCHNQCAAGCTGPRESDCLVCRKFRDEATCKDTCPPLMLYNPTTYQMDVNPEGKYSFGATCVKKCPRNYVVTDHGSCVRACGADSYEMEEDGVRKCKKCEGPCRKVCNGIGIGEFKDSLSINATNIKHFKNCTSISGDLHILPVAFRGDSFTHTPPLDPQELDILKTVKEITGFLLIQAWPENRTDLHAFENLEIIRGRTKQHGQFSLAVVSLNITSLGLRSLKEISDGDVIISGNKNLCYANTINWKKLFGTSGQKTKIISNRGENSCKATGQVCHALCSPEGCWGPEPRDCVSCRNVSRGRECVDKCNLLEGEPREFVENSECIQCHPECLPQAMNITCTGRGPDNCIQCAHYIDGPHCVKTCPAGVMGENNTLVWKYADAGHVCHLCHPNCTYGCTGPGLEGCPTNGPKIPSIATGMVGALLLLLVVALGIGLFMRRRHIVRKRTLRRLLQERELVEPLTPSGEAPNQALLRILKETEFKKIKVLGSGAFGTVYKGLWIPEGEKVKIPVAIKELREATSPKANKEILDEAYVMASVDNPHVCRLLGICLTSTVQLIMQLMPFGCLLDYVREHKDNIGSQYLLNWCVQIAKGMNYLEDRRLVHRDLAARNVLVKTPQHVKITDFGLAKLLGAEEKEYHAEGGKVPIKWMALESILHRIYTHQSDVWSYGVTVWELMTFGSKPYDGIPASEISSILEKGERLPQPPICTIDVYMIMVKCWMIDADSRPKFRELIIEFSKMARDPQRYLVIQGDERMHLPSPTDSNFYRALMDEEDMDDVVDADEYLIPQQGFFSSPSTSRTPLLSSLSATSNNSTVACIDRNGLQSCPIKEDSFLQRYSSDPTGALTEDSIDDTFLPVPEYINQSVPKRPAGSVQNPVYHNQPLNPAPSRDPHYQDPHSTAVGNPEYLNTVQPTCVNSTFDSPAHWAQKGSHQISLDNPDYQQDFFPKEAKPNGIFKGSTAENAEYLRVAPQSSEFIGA
FYN, sequence (P06241 whole entry): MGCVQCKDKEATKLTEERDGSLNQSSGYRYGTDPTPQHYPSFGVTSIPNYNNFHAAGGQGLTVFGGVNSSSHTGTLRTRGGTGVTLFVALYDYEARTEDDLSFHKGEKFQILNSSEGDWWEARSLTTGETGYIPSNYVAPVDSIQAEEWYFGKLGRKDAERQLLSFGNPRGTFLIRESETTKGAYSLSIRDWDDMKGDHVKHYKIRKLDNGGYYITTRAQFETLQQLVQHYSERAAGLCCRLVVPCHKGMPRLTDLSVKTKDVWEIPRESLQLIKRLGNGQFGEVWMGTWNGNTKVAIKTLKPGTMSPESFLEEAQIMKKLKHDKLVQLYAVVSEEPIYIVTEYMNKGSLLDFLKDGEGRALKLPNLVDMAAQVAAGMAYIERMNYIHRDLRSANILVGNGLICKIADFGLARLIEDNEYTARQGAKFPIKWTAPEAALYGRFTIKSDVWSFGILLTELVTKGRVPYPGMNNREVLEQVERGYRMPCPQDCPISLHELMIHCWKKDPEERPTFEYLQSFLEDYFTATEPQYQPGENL

inhibition at 1 µM (EGFR (ErbB1) T790M): 6% | inhibition at 1 µM (FYN): 19% | inhibition at 1 µM (SRMS (Srm)): 22% | inhibition at 1 µM (TNK1): 2% | inhibition at 1 µM (EGFR (ErbB1) d746-750): 23% | inhibition at 1 µM (BLK): 100% | IC50 (BLK; BLK IC50, Z′-Lyte, [ATP] Km app, 1 h incubation, duplicate): 35.6 nM | Hillslope (BLK; BLK IC50 curve): 1.08 | BLK, BTK/Kinase (BLK; BTK selectivity from IC50 values): 2.8 x | inhibition at 0.000495 µM (BLK; read-out: % Inhibition Point 1): -5% | inhibition at 0.00152 µM (BLK; read-out: % Inhibition Point 1): 5% | inhibition at 0.00457 µM (BLK; read-out: % Inhibition Point 1): 13% | inhibition at 0.0137 µM (BLK; read-out: % Inhibition Point 1): 30% | inhibition at 0.0412 µM (BLK; read-out: % Inhibition Point 1): 56% | inhibition at 0.123 µM (BLK; read-out: % Inhibition Point 1): 77% | inhibition at 0.37 µM (BLK; read-out: % Inhibition Point 1): 98% | inhibition at 1.11 µM (BLK; read-out: % Inhibition Point 1): 101% | inhibition at 3.33 µM (BLK; read-out: % Inhibition Point 1): 101% | inhibition at 10 µM (BLK; read-out: % Inhibition Point 1): 101% | inhibition at 0.000495 µM (BLK; read-out: % Inhibition Point 2): 8% | inhibition at 0.00152 µM (BLK; read-out: % Inhibition Point 2): -3% | inhibition at 0.00457 µM (BLK; read-out: % Inhibition Point 2): 7% | inhibition at 0.0137 µM (BLK; read-out: % Inhibition Point 2): 24% | inhibition at 0.0412 µM (BLK; read-out: % Inhibition Point 2): 55% | inhibition at 0.123 µM (BLK; read-out: % Inhibition Point 2): 82% | inhibition at 0.37 µM (BLK; read-out: % Inhibition Point 2): 96% | inhibition at 1.11 µM (BLK; read-out: % Inhibition Point 2): 101% | inhibition at 3.33 µM (BLK; read-out: % Inhibition Point 2): 102% | inhibition at 10 µM (BLK; read-out: % Inhibition Point 2): 101% | inhibition at 1 µM (BTK): 100% | IC50 (BTK; BTK IC50, Z′-Lyte, [ATP] Km app, 1 h incubation, duplicate): 12.8 nM | Hillslope (BTK; BTK IC50 curve): 1.25 | inhibition at 0.000495 µM (BTK; read-out: % Inhibition Point 1): -4% | inhibition at 0.00152 µM (BTK; read-out: % Inhibition Point 1): 11% | inhibition at 0.00457 µM (BTK; read-out: % Inhibition Point 1): 23% | inhibition at 0.0137 µM (BTK; read-out: % Inhibition Point 1): 49% | inhibition at 0.0412 µM (BTK; read-out: % Inhibition Point 1): 84% | inhibition at 0.123 µM (BTK; read-out: % Inhibition Point 1): 97% | inhibition at 0.37 µM (BTK; read-out: % Inhibition Point 1): 98% | inhibition at 1.11 µM (BTK; read-out: % Inhibition Point 1): 100% | inhibition at 3.33 µM (BTK; read-out: % Inhibition Point 1): 98% | inhibition at 10 µM (BTK; read-out: % Inhibition Point 1): 98% | inhibition at 0.000495 µM (BTK; read-out: % Inhibition Point 2): 1% | inhibition at 0.00152 µM (BTK; read-out: % Inhibition Point 2): 5% | inhibition at 0.00457 µM (BTK; read-out: % Inhibition Point 2): 22% | inhibition at 0.0137 µM (BTK; read-out: % Inhibition Point 2): 49% | inhibition at 0.0412 µM (BTK; read-out: % Inhibition Point 2): 80% | inhibition at 0.123 µM (BTK; read-out: % Inhibition Point 2): 96% | inhibition at 0.37 µM (BTK; read-out: % Inhibition Point 2): 98% | inhibition at 1.11 µM (BTK; read-out: % Inhibition Point 2): 102% | inhibition at 3.33 µM (BTK; read-out: % Inhibition Point 2): 97% | inhibition at 10 µM (BTK; read-out: % Inhibition Point 2): 99%
Structure (SMILES): C=CC(=O)N1CCCC(n2nc(-c3c(C)cc(Oc4ccccc4)cc3C)c3c(N)ncnc32)C1 (stereo in doubt) [Compound 3]
